We go through five molecules from patent US6987132B1, “Enediyne compounds and methods related thereto” (Advanced Research and Technology Institute, Inc., priority 2000, dated 2006).

The nature of series [1]: Bergman enediyne cyclization temperature by differential scanning calorimetry (DSC) on neat materials. It counts as physicochemical. The settings on record: for Cyclization Temperature: free ligand, neat material, DSC, heating rate 10° C. min^−1; for Bergman cyclization temperature: comparison enediynes named in text, method not stated for them. As to the method: All preparations were carried out in an inert atmosphere (nitrogen) using Schlenk and drybox techniques. Chemicals used in the syntheses were of the highest purity available from Aldrich Chemical Company and used as received. Dichloromethane was dried and distilled from calcium hydride. The organic compounds were purified by flash chromatography with 60 Å Silica gel ([…]) using HPLC grade solvents. ^1H and ^13C NMR were recorded on VXR 400 MHz NMR spectrometer using the residual proton resonance as an internal reference. The multiplicity of the ^13C signals was determined by the DEPT technique. EI and FAB MS spectra were acquired on a Kratos MS-80 mass spectrometer that was interfaced with a Kratos DS90 data system. Differential scanning calorimetry traces were recorded on a General V4.1C DuPont 910 DSC differential scanning calorimeter coupled to a Dupont Thermal Analyst 2100 at a heating rate of 10° C. min^−1.

A short description of series [2]: Reactivity of enediyne ligand upon addition of metal salts at room temperature. It counts as physicochemical.
Series [3] is described as follows: Thermal cyclization temperature and stability of free ligands in solution. The following applies: for could tolerate heating to (temperature): free ligand in solution; for thermal cyclization temperature in solution: absence of metal.
The nature of series [4]: Pseudo first-order rate constant and half-life of thermal reactivity in DMSO by 1H NMR. The settings on record: 65° C., 20-fold cyclohexadiene. It counts as physicochemical. The text has this:
As is often observed in solution cyclization reactions of enediynes, a series of products was produced, which in this case included di-substituted benzenes, and as such no dominant species could be isolated from the reaction.

`C(#CCN=Cc1ccccn1)/C=C\C#CCN=Cc1ccccn1` (stereo in doubt) [Compound 14, (Z)-N,N′-Bis[1-pyridin-2-yl-meth-(E)-ylidene]oct-4-ene-2,6-diyne-1,8-diamine]: the “Cyclization Temperature” value in series [1] turned out to be 100 °C. In addition, the “time to reaction completion” value in series [2] (addition of MgCl2, no additional heating) amounted to 2 h. Besides, the “time to reaction completion” value in series [2] (addition of zinc acetate) was 0.083 h. For the same molecule, the “observation upon addition of Zn(II) or Cu(II)” value in series [2] (room temperature) is “turned black instantaneously”. Moreover, in series [3], the “could tolerate heating to (temperature)” value is “about 50 °C” and the “thermal cyclization temperature in solution” value was “about 55 °C”.

`C(#Cc1cccnc1)C=CC#Cc1cccnc1` [1,6-bis(pyridine-3)hex-3-ene-1,5-diyne, reference compound] came in with a Bergman cyclization temperature in series [1] of 195 °C.

On to `CN(C)CC#CC=CC#CCN(C)C` [Compound 4, 1,8-bis(dimethylamino)oct-4-ene-2,6-diyne], for which, in series [1], the “Cyclization Temperature” value was 186 °C.

Turning to `NCC#CC=CC#CCN` [Compound 12, 1,8-diaminooct-4-ene-2,6-diyne], in series [1], the “Cyclization Temperature” value is 106 °C. Besides, the “decrease in the Bergman cyclization temperature” value in series [1] (relative to the preceding compound of the series 4, 9, 12) was 37 °C. In addition, in series [4], the “pseudo first-order rate constant kobs” value was found to be 0.0416 h⁻¹. Besides, in series [3], the “could tolerate heating to (temperature)” value was “about 50 °C” and the “thermal cyclization temperature in solution” value is “about 65 °C”.

`C(#CCOc1cccnc1)C=CC#CCOc1cccnc1` [bpod, 1,8-bis(pyridine-3-oxy)oct-4-ene-2,6-diyne, reference compound] showed a Bergman cyclization temperature in series [1] of 136 °C.
